From patent US20050260630A1, “Rapid methods for detecting methylation of a nucleic acid molecule” (Michigan State University, priority 2004, published 2005)

Assays:
[1] = system: GC-rich regions of liver genomic DNA; assay: GC-rich region methylation following phenobarbital treatment of B6C3F1 mice (AP-PCR and capillary electrophoresis, RsaI/HpaII and RsaI/MspI digests); format: in vivo; conditions: B6C3F1 mouse liver
[2] = system: genomic DNA from liver cells (GC-rich regions, 5′CCGG 3′ sites); assay: Arbitrarily primed PCR and capillary electrophoresis methylation analysis of liver DNA of phenobarbital-treated C57BL/6 mice (RsaI/HpaII digest); conditions: 0.05% (w/v) in drinking water for 2 weeks
H4IIE rat hepatoma cells = assay: Global DNA methylation by SssI methylase assay in treated H4IIE cells; conditions: 72 hour incubation
[3] = Systolic blood pressure of DOCA-treated uninephrectomized rats; format: in vivo, rat; conditions: male Sprague-Dawley rats, uninephrectomy, pellet 200 mg/kg, water with 1.0% NaCl and 0.2% KCl; at 28 days (control 112 mmHg)
Protocol: Hypertensive rats were created by subjecting male Sprague-Dawley rats, weighing […] uninephrectomy and implanting them with a deoxycorticosterone acetate (DOCA) pellet (200 mg/kg). […] Aortas were removed 28 days after implantation of the DOCA pellet.

[4] = HpaII digest, 0.05% (w/v) in drinking water, 2 weeks
[5] = MspI digest, 0.05% (w/v) in drinking water, 2 weeks
[6] = Total of HpaII and MspI digests, 0.05%
[7] = H4IIE cells treated with non-cytolethal concentrations
[8] = H4IIE cells treated with cytolethal concentrations

SMILES: CCC1(c2ccccc2)C(=O)NC(=O)NC1=O [phenobarbital]
- Sites of Hypermethylation [1, 4]: 10 sites
- Sites of Hypomethylation [1, 4]: 5 sites
- Sites of “New” Methylation [1, 4]: 11 sites
- TOTAL altered sites [1, 4]: 26 sites
- Sites of Hypermethylation [1, 5]: 8 sites
- Sites of Hypomethylation [1, 5]: 8 sites
- Sites of “New” Methylation [1, 5]: 11 sites
- TOTAL altered sites [1, 5]: 27 sites
- Sites of Hypermethylation [1, 6]: 18 sites
- Sites of Hypomethylation [1, 6]: 13 sites
- Sites of “New” Methylation [1, 6]: 22 sites
- TOTAL altered sites [1, 6]: 53 sites
- sites in murine liver DNA where treatment has affected methylation status ([2]; C57BL/6 mice): 10 sites
- Sites of Hypermethylation ([2]; liver DNA of male C57BL/6 mice, t-test α=0.05): 8 sites

SMILES: Nc1ncn([C@H]2C[C@H](O)[C@@H](CO)O2)c(=O)n1 [dAzaC, 5-aza-2′deoxycytidine]
- global DNA methylation status (H4IIE rat hepatoma cells; [7]): decrease in global DNA methylation status

SMILES: CC(=O)OCC(=O)[C@H]1CC[C@H]2[C@@H]3CCC4=CC(=O)CC[C@]4(C)[C@H]3CC[C@]12C [DOCA, deoxycorticosterone acetate]
- systolic blood pressure [3]: 180 mmHg

SMILES: O=c1[nH]cc(F)c(=O)[nH]1 [5-FU, 5-fluorouracil]
- global DNA methylation status (H4IIE rat hepatoma cells; [8]): decrease in global DNA methylation status

SMILES: CN[C@@H]1C[C@H]2O[C@@](C)([C@@H]1OC)n1c3ccccc3c3c4c(c5c6ccccc6n2c5c31)C(=O)NC4 [staurosporine, Staurosporine]
- global DNA methylation status (H4IIE rat hepatoma cells; [8]): decrease in global DNA methylation status
- global DNA methylation status (H4IIE rat hepatoma cells; [7]): decrease in global DNA methylation status
